System: isolated rat osteoclasts
Assay: Bone resorption by isolated rat osteoclasts on cortical bone slices
Type: cell-based
Details: Osteoclast, 18 hours, Mean ± SEM, n = 12, control 100 ± 27
Method: Bone resorption was measured by the actions of isolated rat osteoclasts on cortical bone slices (Zaidi et al. Quarterly Journal of Experimental Physiology 1988 73:471-485). Newborn Wistar rats were killed by decapitation and their femora and tibiae removed. Osteoclasts were mechanically disaggregated by curetting the bones into medium followed by agitation with a pipette. Osteoclasts were separated from other cells by sedimentation onto bone slices (15 minutes, 37°) after which the slices were removed and gently washed. The bone slices were then incubated in the presence of test compounds (37°, 10% humidified CO2, 18 hours) and fixed with glutaraldehyde. The degree of bone resorption was then assessed by the area of erosions produced by the osteoclasts using scanning electron microscopy. Data were meaned from measurements of 6 bone slices in each of two independent experiments.
Test compounds were dissolved in ethanol which was also added to control incubations (1%) in the absence of compound.

For `Cc1ccccc1-n1nnc2cnc3ccccc3c21` [Example 2, 1-(2-Methylphenyl)triazolo[4,5-c]quinoline], the activity at 10 µM (Conc. 10 μM) was 49 ± 20% and the activity at 100 µM (Conc. 100 μM) was 0%.

Reference: patent US5420135A, “Substituted quinoline derivatives” (Smith Kline & French Laboratories Limited, priority 1989, dated 1995)
